Molecules are shown by their SMILES.

The subject of one data set is rats. Particulars: consecutive administration of 1200 mg/Kg/day for 52 weeks; cited from earlier work.
In data set [1] the test system is tissue of the pancreatic islets of Langerhans. Put plainly: Insulin secretion from cultured tissue of the pancreatic islets of Langerhans (ELISA), as index of mitochondria-activating activity / ATP production. Particulars: for insulin concentration (secretion amount of insulin from tissue of the islets of Langerhans) / insulin concentration, value in parentheses (control = 100): 0.1 μg/ml of each test substance in medium, culture for 1 hr; for insulin concentration (secretion amount of insulin from tissue of the islets of Langerhans): ELISA, control 43 ± 8; for insulin concentration, value in parentheses (control = 100): relative to control (100); for increase of the concentration of insulin in the medium: addition amount of 0.1 μg/ml, versus control. In kind it is cell-based, rat. The source says: Therefore, a tissue of the pancreatic islets of Langerhans, which reacts with ATP to secrete insulin, was used to evaluate the mitochondria-activating activity of a test substance, with the insulin secretion as an index. As the tissue of the pancreatic islets of Langerhans, a culture kit (manufactured by Hokudo Co., Ltd) prepared from a rat was used. […] In the same manner as in Example 1, a tissue of the pancreatic islets of Langerhans was used to evaluate the mitochondria-activating activity of a test substance, with the insulin secretion as an index. As the tissue of the pancreatic islets of Langerhans, a culture kit (manufactured by Hokudo Co., Ltd) prepared from a rat was used.
(In general: ELISA stands for enzyme-linked immunosorbent assay.)

For the next data set, the system named is kidney. Particulars: reported in patent reference 5; narrow safety margin; cited from earlier work.

On to `COC1=C(OC)C(=O)C(C/C=C(\C)CC/C=C(\C)CC/C=C(\C)CC/C=C(\C)CC/C=C(\C)CC/C=C(\C)CC/C=C(\C)CC/C=C(\C)CC/C=C(\C)CCC=C(C)C)=C(C)C1=O` [coenzyme Q10], for which the “toxic effect in chronic toxicity test” value with rats is listed as “absence of toxic effect”.

Take `COC1=C(OC)C(=O)C(C/C=C(\C)CC/C=C(\C)CC/C=C(\C)CC/C=C(\C)CC/C=C(\C)CC/C=C(\C)CC/C=C(\C)CC/C=C(\C)CC/C=C(\C)CCC=C(C)C)=C(C)C1=O` [oxidized coenzyme Q10, reference compound]: in data set [1], the “insulin concentration (secretion amount of insulin from tissue of the islets of Langerhans)” value worked out at 329 ± 85 ng/mL; the “insulin concentration, value in parentheses (control = 100)” value (shortened to “insulin concentration, value”) is 765; the “increase of the concentration of insulin in the medium” value (“increase” below) is 7.7 fold.

As to `O=C(O)CC(O)(CC(=O)O)C(=O)O` [citric acid], in data set [1], the “insulin concentration (secretion amount of insulin from tissue of the islets of Langerhans)” value was determined as 2030 ± 391 ng/mL; the “insulin concentration, value” value was 4720; the “increase” value came to 47 fold.

`COc1c(O)c(C)c(C/C=C(\C)CC/C=C(\C)CC/C=C(\C)CC/C=C(\C)CC/C=C(\C)CC/C=C(\C)CC/C=C(\C)CC/C=C(\C)CC/C=C(\C)CCC=C(C)C)c(O)c1OC` [reduced coenzyme Q10]: in data set [1], the “insulin concentration (secretion amount of insulin from tissue of the islets of Langerhans)” value was 360 ± 78 ng/mL; the “insulin concentration, value” value came out at 837; the “increase” value was found to be 8.3 fold.

`O=C(O)c1cc(C(=O)O)c2c(n1)C(=O)C(=O)c1cc(C(=O)O)[nH]c1-2` [pyrroloquinoline quinone, 2,7,9-tricarboxy-1H-pyrrolo[2,3-f]quinoline-4,5-dione]: the toxicity to kidney entry in the data set with kidney is given as “strong toxicity to kidney”. In data set [1], the “insulin concentration (secretion amount of insulin from tissue of the islets of Langerhans)” value was determined as 220 ± 56 ng/mL; the “insulin concentration, value” value was determined as 511; the “increase” value came out at 5.1 fold.

The values are drawn from US20070259908A1, “Mitochondria Activators” (KANEKA CORPORATION, priority 2004, published 2007).
